Measured values from patent US7718645B2, “Substituted bicyclolactam compounds” (Pfizer Inc., priority 2007, dated 2010).
Read-outs that look alike come from different tables or passages of the source.

Molecular target: T1, Human full-length diacylglycerol:acylCoA acyltransferase 1 (DGAT-1) (Homo sapiens, UniProt O75907)
T1 construct: Human full-length diacylglycerol:acylCoA acyltransferase 1 (DGAT-1) was expressed in Sf9 insect cells; made in house; host or cells: Sf9 insect cells (baculovirus)
T1 sequence (O75907 1-488): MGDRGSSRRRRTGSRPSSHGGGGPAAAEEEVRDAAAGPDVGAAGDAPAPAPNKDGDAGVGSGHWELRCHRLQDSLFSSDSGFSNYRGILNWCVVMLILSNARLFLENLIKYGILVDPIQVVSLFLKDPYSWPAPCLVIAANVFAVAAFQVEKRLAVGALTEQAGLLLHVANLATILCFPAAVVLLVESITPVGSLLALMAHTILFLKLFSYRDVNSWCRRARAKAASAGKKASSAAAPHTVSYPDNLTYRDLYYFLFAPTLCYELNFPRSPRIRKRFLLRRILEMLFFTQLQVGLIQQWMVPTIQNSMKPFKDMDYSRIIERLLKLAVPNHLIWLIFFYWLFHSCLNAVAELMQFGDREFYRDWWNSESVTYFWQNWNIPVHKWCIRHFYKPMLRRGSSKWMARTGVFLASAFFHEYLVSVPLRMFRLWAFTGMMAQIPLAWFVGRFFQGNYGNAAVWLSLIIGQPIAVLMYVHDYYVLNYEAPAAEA
Experiment: In vitro assay for DGAT-1 inhibition ([14C]decanoylCoA, Sf9 membrane fraction)
Assay type: biochemical
Method: Human full-length diacylglycerol:acylCoA acyltransferase 1 (DGAT-1) was expressed in Sf9 insect cells which are then lysed and a crude membrane fraction (105,000×g pellet) was prepared.
The cells were cultured as follows. Sf9 cells (20 L) were infected with 4 mL of DGAT1 Baculovirus Infected Insect Cells (BIIC) for 72 hours in a Wave Bioreactor System 20/50P (Wave Biotec/GE Healthcare).
Crude DGAT-1 microsomes were prepared as follows. Cell pellets were washed once with ice-cold Dulbecco's phosphate-buffered saline. Cells were collected in tabletop centrifuge (Beckman GS-6KR), 15 minutes, 2000×g, 4° C. Twenty (20) mL of ice-cold Microsome Buffer (MB) was added per 5 g of cell pellet. The suspension was passed through a microfluidizer 3 times (18K psi). The lysate was transferred to centrifuge tubes and centrifuged for 20 minutes at 5000×g (Beckman-Coulter, Inc. Allegra® 64R High-Speed Refrigerated Benchtop Centrifuge, F0650 rotor) at 4° C. The supernatant was transferred to Ultracentrifuge tubes and centrifuged at […] for 1 hr in a Beckman Ti-45 rotor, 4° C. The supernatant fluid was discarded. The pellet was resuspended in 70 mL of MB by sonication. The microsome concentration was determined using Bio-Rad Protein DC Protein Assay. The microsomes were filter sterilized with a 0.22 μm filter. The samples were portioned, flash frozen and stored at −80° C.
Inhibitors in DMSO were pre-incubated with membranes before initiating the DGAT-1 reaction by the addition of decanoylCoA. […] The inhibitors were present at a range of eight concentrations to generate an apparent IC50 for each compound. […] Specifically, the eight concentrations used were 10 μM, 3 μM, 1 μM, 300 nM, 100 nM, 30 nM, 10 nM and 3 nM.
The reactions were allowed to proceed for 1.5 h at room temperature and then terminated by the addition of 10 μl of HCl (0.5 M). Reaction mixtures were neutralized by the addition of 15 μl of tris(hydroxy-methyl)aminomethane (1M, pH 8.0) and then mixed by trituration with 37.5 μl of Microscint™-E (Perkin Elmer).
Where this DGAT-1 inhibition assay was performed on a compound more than once, an inhibition range is also provided for that compound.

[1] = apparent IC50, eight inhibitor concentrations 10 μM to 3 nM, read-out: IC50
[2] = inhibition range where the assay was performed on a compound more than once, read-out: IC50 range
[3] = Examples 17-23 table, range of repeated assays, read-out: DGAT-1 IC50 Range
[4] = Examples 17-23 table, read-out: DGAT-1 IC50
[5] = Examples 24-25 table, range of repeated assays, read-out: DGAT-1 IC50 Range
[6] = Examples 24-25 table, read-out: DGAT-1 IC50

| IC50 [1] [µM] | IC50 [2] [µM] | IC50 [3] [µM] | IC50 [4] [µM] | Compound | other results |
| --- | --- | --- | --- | --- | --- |
| 0.0843 |  |  |  | COC(=O)CC1CC=C(c2ccc(N3CCOc4ncnc(N)c4C3=O)cc2)CC1 (racemic) [Example 52, Methyl(+)-{4-[4-(4-Amino-5-oxo-7,8-dihydropyrimido[5,4-f][1,4]oxazepin-6(5H)-yl)phenyl]cyclohex-3-en-1-yl}acetate] |  |
| < 0.01 | 0.003 to 0.0272 |  |  | Nc1ncnc2c1C(=O)N(c1ccc([C@@H]3CC[C@@H]4[C@@H](CC(=O)O)CC[C@@H]43)cc1)CCO2 (racemic) [Example 55, ±{(1R,3aS,4R,6aR)4-[4-(4-Amino-5-oxo-7,8-dihydropyrimido[5,4-f][1,4]oxazepin-6(5H)-yl)phenyl]octahydropentalen-1-yl}acetic Acid] |  |
| 0.0347 | 0.0267 to 0.0586 |  |  | Nc1ncnc2c1C(=O)N(c1ccc([C@H]3C[C@H]4C[C@@H]3C3C(C(=O)O)C34)cc1)CCO2 (mixture of isomers) [Example 57, (±)-(1R,5R,6S)-6-[4-(4-Amino-5-oxo-7,8-dihydropyrimido[5,4-f][1,4]oxazepin-6(5H)-yl)phenyl]tricyclo[3.2.1.0˜2.4˜]octane-3-carboxylic Acid] |  |
| 0.0364 | 0.0338 to 0.0393 |  |  | Nc1ncnc2c1C(=O)N(c1ccc(C3=CCC(CC(=O)O)CC3)cc1)CCO2 (single isomer, unassigned; (+)) [Example 53, (+)-{4-[4-(4-Amino-5-oxo-7,8-dihydropyrimido[5,4-f][1,4]oxazepin-6(5H)-yl)phenyl]cyclohex-3-en-1-yl}acetic Acid] |  |
| 0.0339 |  |  |  | C[C@H]1COc2ncnc(N)c2C(=O)N1c1ccc([C@H]2CC[C@H](CC(=O)O)CC2)cc1 [Example 5] |  |
| 0.0555 | 0.0291 to 0.0896 |  |  | Nc1ncnc2c1C(=O)N(c1ccc(C3CCC(CC(=O)O)CC3)cc1F)CCO2 (stereo not drawn) [Example 6, 2-(4-(4-(4-amino-5-oxo-7,8-dihydropyrimido[5,4-f][1,4]oxazepin-6(5H)-yl)-3-fluorophenyl)cyclohexyl)acetic Acid] |  |
| 0.183 |  |  |  | CCOC(=O)C[C@H]1CC[C@H](c2ccc(N3CC(C)(C)Oc4ncnc(N)c4C3=O)cc2)CC1 [Example 7, ethyl {trans-4-[4-(4-amino-8,8-dimethyl-5-oxo-7,8-dihydropyrimido[5,4-f][1,4]oxazepin-6(5H)-yl)phenyl]cyclohexyl}acetate] |  |
| 0.239 |  |  |  | COC(=O)C[C@H]1CC[C@H](c2ccc(N3CCOc4nc(C)nc(N)c4C3=O)cc2)CC1 [Example 9, methyl {trans-4-[4-(4-amino-2-methyl-5-oxo-7,8-dihydropyrimido[5,4-f][1,4]oxazepin-6(5H)-yl)phenyl]cyclohexyl}acetate] |  |
| 1.33 | 1.07 to 1.66 |  |  | CCC1CN(c2ccc(C3CCC(CC(=O)O)CC3)cc2)C(=O)c2c(N)ncnc2O1 (stereo not drawn) [Example 13, {4-[4-(4-Amino-8-ethyl-5-oxo-7,8-dihydro-5H-9-oxa-1,3,6-triaza-benzocyclohepten-6-yl)-phenyl]-cyclohexyl}-acetic acid] |  |
| 0.0273 | 0.0136 to 0.0779 |  |  | CC1COc2ncnc(N)c2C(=O)N1c1ccc(C2CCC(CC(=O)O)CC2)cc1 (stereo not drawn) [Example 15, {4-[4-(4-Amino-7-methyl-5-oxo-7,8-dihydro-5H-9-oxa-1,3,6-triaza-benzocyclohepten-6-yl)-phenyl]-cyclohexyl}-acetic acid] |  |
|  |  | 0.003 to 0.0155 | < 0.00621 | C[C@@H]1CN(c2ccc(C3CCC(CC(=O)O)CC3)c(F)c2)C(=O)c2c(N)ncnc2O1 (stereo partly drawn) [Example 17, (R)-2-(4-(4-(4-amino-8-methyl-5-oxo-7,8-dihydropyrimido[5,4-f][1,4]oxazepin-6(5H)-yl)-2-fluorophenyl)cyclohexyl)acetic acid] |  |
|  |  | 0.0044 to 0.0069 | 0.00582 | Nc1ncnc2c1C(=O)N(c1ccc(C3CCC(CC(=O)O)CC3)c(Cl)c1)CCO2 (stereo not drawn) [Example 18, 2-(4-(4-(4-amino-5-oxo-7,8-dihydropyrimido[5,4-f][1,4]oxazepin-6(5H)-yl)-2-chlorophenyl)cyclohexyl)acetic acid] |  |
|  |  | 0.003 to 0.0155 | < 0.00826 | Nc1ncnc2c1C(=O)N(c1ccc(C3CCC(CC(=O)O)CC3)c(F)c1)CCO2 (stereo not drawn) [Example 19, 2-(4-(4-(4-amino-5-oxo-7,8-dihydropyrimido[5,4-f][1,4]oxazepin-6(5H)-yl)-2-fluorophenyl)cyclohexyl)acetic acid] |  |
|  |  | 0.0086 to 0.0172 | 0.013 | Cc1cc(N2CCOc3ncnc(N)c3C2=O)ccc1C1CCC(CC(=O)O)CC1 (stereo not drawn) [Example 20, 2-(4-(4-(4-amino-5-oxo-7,8-dihydropyrimido[5,4-f][1,4]oxazepin-6(5H)-yl)-2-methylphenyl)cyclohexyl)acetic acid] |  |
|  |  | 0.0061 to 0.0374 | 0.0148 | Cc1cc(N2C[C@@H](C)Oc3ncnc(N)c3C2=O)ccc1C1CCC(CC(=O)O)CC1 (stereo partly drawn) [Example 21, (R)-2-(4-(4-(4-amino-8-methyl-5-oxo-7,8-dihydropyrimido[5,4-f][1,4]oxazepin-6(5H)-yl)-2-methylphenyl)cyclohexyl)acetic acid] |  |
|  |  | 0.0279 to 0.0345 | 0.03 | C[C@@H]1CN(c2ccc(C3CCC(CC(=O)O)CC3)cc2F)C(=O)c2c(N)ncnc2O1 (stereo partly drawn) [Example 22, (R)-2-(4-(4-(4-amino-8-methyl-5-oxo-7,8-dihydropyrimido[5,4-f][1,4]oxazepin-6(5H)-yl)-3-fluorophenyl)cyclohexyl)acetic acid] |  |
|  |  | 0.643 to 2.27 | 1.41 | Cc1cc(C2CCC(CC(=O)O)CC2)ccc1N1CCOc2ncnc(N)c2C1=O (stereo not drawn) [Example 23, 2-(4-(4-(4-amino-5-oxo-7,8-dihydropyrimido[5,4-f][1,4]-oxazepin-6(5H)-yl)-3-methylphenyl)cyclohexyl)acetic acid] |  |
|  |  |  |  | C[C@@H]1CN(c2ccc([C@H]3CC[C@@H](CC(=O)O)CC3)c(F)c2)C(=O)c2c(N)ncnc2O1 [Example 24, (cis-4-{4-[(8R)-4-amino-8-methyl-5-oxo-7,8-dihydropyrimido[5,4-f][1,4]oxazepin-6(5H)-yl]-2-fluorophenyl}cyclohexyl)acetic acid] | IC50 [5]: 0.0017 to 0.0132 µM; IC50 [6]: 0.0046 µM |
|  |  |  |  | C[C@@H]1CN(c2ccc([C@H]3CC[C@H](CC(=O)O)CC3)c(F)c2)C(=O)c2c(N)ncnc2O1 [Example 25, (trans-4-{4-[(8R)-4-amino-8-methyl-5-oxo-7,8-dihydropyrimido[5,4-f][1,4]oxazepin-6(5H)-yl]-2-fluorophenyl}cyclohexyl)acetic acid] | IC50 [5]: 0.01 to 0.017 µM; IC50 [6]: 0.0123 µM |
| 0.0445 | 0.0342 to 0.075 |  |  | CS(=O)(=O)NC(=O)C[C@H]1CC[C@H](c2ccc(N3CCOc4ncnc(N)c4C3=O)cc2)CC1 [Example 26, 2-{Trans-4-[4-(4-amino-5-oxo-7,8-dihydropyrimido[5,4-f][1,4]oxazepin-6(5H)-yl)phenyl]cyclohexyl}-N-(methylsulfonyl)acetamide] |  |
| 0.0522 | 0.0114 to 0.0681 |  |  | C[C@@H]1CN(c2ccc([C@H]3CC[C@H](CC(N)=O)CC3)cc2)C(=O)c2c(N)ncnc2O1 [Example 27, (Trans-4-{4-[(8R)-4-amino-8-methyl-5-oxo-7,8-dihydropyrimido[5,4-f][1,4]oxazepin-6(5H)-yl]phenyl}cyclohexyl)acetamide] |  |
| 0.0113 | 0.0073 to 0.0199 |  |  | C[C@@H]1CN(c2ccc(C3CCC(CC(N)=O)CC3)c(F)c2)C(=O)c2c(N)ncnc2O1 (stereo partly drawn) [Example 28, (R)-2-(4-(4-(4-amino-8-methyl-5-oxo-7,8-dihydropyrimido[5,4-f][1,4]oxazepin-6(5H)-yl)-2-fluorophenyl)cyclohexyl)acetamide] |  |
| 0.0384 | 0.0301 to 0.0481 |  |  | C[C@@H]1CN(c2ccc([C@H]3CC[C@H](CC#N)CC3)cc2)C(=O)c2c(N)ncnc2O1 [Example 47, (Trans-4-{4-[(8R)-4-amino-8-methyl-5-oxo-7,8-dihydropyrimido[5,4-f][1,4]oxazepin-6(5H)-yl]phenyl}cyclohexyl)acetonitrile] |  |
